# From US20250009856A1, “METHODS FOR TREATING RESPIRATORY DISEASES” (MUCPharm Pty Ltd, priority 2021, published 2025)
# “And” between values parts separate entries of the source, which are not always exact repeats. Identical values can stand only once.
# Legend:
# [1] = Bromelain and acetylcysteine in plasma (ELISA), rabbit tolerability study; settings: 4, 6, 24 and 48 h post-inhalation of 0.1 or 0.25 mg bromelain alone or in combination with acetylcysteine
# [2] = Sputum flow speed after mixing with BromAc, DNase and combinations; settings: agent without DNASE: BR(250 ug/ml), NAC(20 mg/ml) or both; 1 hour, 37 deg C; Cont(PBS) 0.0436
# Experimental: Artificial sputa was prepared following methodology with ingredients as in earlier experiments. To 1.5 ml of artificial sputa in a vial was added 0.5 ml of reagent containing the required bromelain, NAC, DNase and their combinations. Control vials included 0.5 ml of PBS only. The mixture was vortex mixed and incubated in a shaker water bath at 37 deg C. At the end of 1 hour, the samples were retrieved, vortex mixed and equilibrated to ambient room temperature before measuring dynamic viscosity and pipette flow.
# Dynamic viscosity was determined using the capillary tube method as in earlier experiments, whilst the pipette flow was evaluated using a 0.5 ml pipette inclined at 60 deg angle. The pipette flow was calculated as shown below.
# Pipette flow (€)=0.45 ml sputa/time to empty (sec).
# [3] = Dynamic viscosity (capillary tube) after aerosol treatment; design: species or system human; settings: SS; for Dynamic viscosity (γ), After: before 1.748 ± 0.006
# Experimental: Six grams of soft PMP mucin was homogenised using a shredder with phosphate buffer saline (PBS) (3.0 ml) with sonification and vortexed until a homogenous mixture was formed, with incubation at 37° C. to remove air bubbles and after which viscosity was adjusted (further dilutions with PBS). The pH was adjusted to 7.0 using either 1.0 M NaOH or 0.1 N Hydrochloric acid. Dynamic viscosity (Y) of sputum was measured using the capillary tube method as outlined in […]. and G. Castellano, Determination of the kinematic viscosity by the liquid rise in a capillary tube. […] Ensino de Física, 2013. 35. A similar investigation as above was carried out to determine a comparative dynamic viscosity and pipette flow time for PMP mucin simulated sputa (SS). A similar treatment as in the experiment described above for NAC was carried out using Bromelain (125 and 250 μg/ml) in PBS (pH.7.0) along with control using PBS (pH.7.0). Both dynamic viscosity and pipette flow time was measured as outlined earlier for both artificial and PMP simulated sputa models. Using a combination of NAC (20 mg/ml) with either 125 or 250 μg/ml Bromelain in PBS (pH.7.0), a similar investigation was carried out as outlined earlier and measurements were made for both artificial and simulated sputa models. D=(TREATED)-(UNTREATED/(UNTREATED)×100.
structure (smiles),measurement,setting,value
"CC(=O)N[C@@H](CS)C(=O)O [NAC, N-acetylcysteine]",detection in plasma (ELISA),[1],not detected
same,Sputum flow speed (€),[2],0.05 mL/s
same,"D (%), decrease of dynamic viscosity (γ)",[3]; aerosol NAC 10 mg/ml,16% and 16 ↓ %
same,"Dynamic viscosity (γ), After",[3]; aerosol NAC 10 mg/ml,1.467 ± 0.011 cSt
same,"D (%), decrease of dynamic viscosity (γ)",[3]; aerosol NAC 20 mg/ml,17% and 17 ↓ %
same,"Dynamic viscosity (γ), After",[3]; aerosol NAC 20 mg/ml,1.453 ± 0.055 cSt
